Patent US10683334B2 (INDIANA UNIVERSITY RESEARCH AND TECHNOLOGY CORPORATION, priority 2016, dated 2020)
Square brackets hold non-standard residues; d marks the D form. Peptide text beside a SMILES is read from it. Aib = CC(C)(N)C(=O)O

Columns and labels:
physchem = experiment: physchem
Protocol: 1 or 5 mg of pre-lyophilized peptide in 2 mL Eppendorf tube was treated with 200-400 uL of phosphate buffer (PBS: 50 mM sodium phosphate, 150 mM of sodium chloride, pH7.4). Samples were then vortexed and sonicated for 10 min then equilibrated at RT for 1H, and then centrifuged at 10 krpms for 10 min Concentration of the peptides in obtained supernatant was determined by measuring UV absorbance at λ=280 nm. […] Concentration in aliquots was reassessed as previously with UV absorbance. Change in peptide concentration was evaluated after 48 h and 7 days of storage at 4° C.

[1] = Thioflavin-T fluorescence assay (fibrillation/aggregation); type: physicochemical
Protocol: The Thioflavin T (ThT) Assay measures changes of in fluorescence intensity of ThT upon binding to amyloid fibrils. The enhanced fluorescence can be observed by fluorescence microscopy or by fluorescent spectroscopy. The spectroscopic assay is commonly used to monitor fibrilization over time, but the assay is not strictly quantitative and differences in binding have been observed for samples after lyophilization.
Prepare a ThT stock solution by adding 8 mg ThT to 10 mL phosphate buffer (10 mM phosphate, 150 mM NaCl, pH 7.0) and filter through a 0.2 μm syringe filter. This stock solution should be stored in the dark and is stable for about one week.
Dilute the stock solution into the phosphate buffer (1 mL ThT stock to 50 mL buffer) on the day of analysis to generate the working solution.
Add an aliquot of untreated protein solution (5-10 μL) to the cuvette, stir for 1 min, and measure the intensity over 60 s. This serves as the control sample. […]
Lyophilized peptides were dissolved in appropriate buffer at concentration ˜8-9 mg/mL (1-5 in 0.1N hydrochloric acid; 7, 9 and 11 in 50 mM Sodium Phosphate, 150 mM of sodium chloride, pH7.4). Exact concentration was calculated based on UV absorbance at λ=280 nm and all samples were dissolved further down to equal concentration of 5 mg/mL. […] Fibrillation was measured according to modified Thioflavin-T fluorescence assay protocol. […]

[2] = tested on: insulin induced hypoglycemia in diabetic pigs; experiment: Pig study: reversal of insulin induced hypoglycemia; type: in vivo, Yucatan miniature swine; conditions: insulin detemir 0.5 U/kg s.c. at 0 min, peptide 10 nmoles/kg at 240 min
Protocol: Male diabetic Yucatan miniature swine (4 animals/group) were fed and administered NPH insulin at 8:00 AM and at 12 h prior to the initiation of the study, then fasted until the completion of the final blood glucose measurements. Insulin NPH doses were adjusted based on glucose levels and the animals were randomized to achieve balanced glucose levels across groups. […] Blood glucose was measured at −5, 0 (Pre-Dose), 30, 60, 120, 240, 245, 250, 260, 280, 300, 330, 360 and 480 minutes using a handheld glucometer. The same instrument was used for all animals and two readings were taken per time point to insure consistency. The statistical analysis of the results obtained in the in vivo experiments was performed using Prism 6.0h (GraphPad Software, Calif.) applying regular two-way ANOVA followed by Sidak multiple comparison test between the two treatments. […] The results are presented as means±SEM of four replicates per group.

glucagon receptor = glucagon receptor (Homo sapiens, UniProt P47871); experiment: Luciferase-based glucagon assay (cAMP reporter, HEK293 cells)
Protocol: At the end of the incubation 100 microliters of LucLite luminescence substrate reagent (Perkin-Elmer, Wellesley, Mass.) were added to each well. […] The luminescent light output indicates activation of the luciferase reporter gene, which in turn is a measure of the activation of the receptor.

hGLP-1R = hGLP-1R (Homo sapiens, UniProt P43220); experiment: cAMP luciferase reporter assay, activity at the GLP-1 receptor (Table 3)
Sequence of hGLP-1R (P43220 24-463): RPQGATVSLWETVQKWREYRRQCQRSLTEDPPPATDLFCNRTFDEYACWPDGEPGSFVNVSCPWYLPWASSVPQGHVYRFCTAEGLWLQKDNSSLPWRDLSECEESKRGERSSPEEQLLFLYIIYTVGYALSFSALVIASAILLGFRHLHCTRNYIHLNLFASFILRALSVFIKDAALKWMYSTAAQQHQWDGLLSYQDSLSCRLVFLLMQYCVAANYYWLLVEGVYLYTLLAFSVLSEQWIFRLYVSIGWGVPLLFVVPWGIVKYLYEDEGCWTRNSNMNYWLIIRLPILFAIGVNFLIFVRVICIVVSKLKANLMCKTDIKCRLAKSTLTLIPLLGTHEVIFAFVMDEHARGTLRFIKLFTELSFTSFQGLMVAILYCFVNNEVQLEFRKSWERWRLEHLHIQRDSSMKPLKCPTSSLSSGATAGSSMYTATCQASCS

Sequence of glucagon receptor (P47871 26-477): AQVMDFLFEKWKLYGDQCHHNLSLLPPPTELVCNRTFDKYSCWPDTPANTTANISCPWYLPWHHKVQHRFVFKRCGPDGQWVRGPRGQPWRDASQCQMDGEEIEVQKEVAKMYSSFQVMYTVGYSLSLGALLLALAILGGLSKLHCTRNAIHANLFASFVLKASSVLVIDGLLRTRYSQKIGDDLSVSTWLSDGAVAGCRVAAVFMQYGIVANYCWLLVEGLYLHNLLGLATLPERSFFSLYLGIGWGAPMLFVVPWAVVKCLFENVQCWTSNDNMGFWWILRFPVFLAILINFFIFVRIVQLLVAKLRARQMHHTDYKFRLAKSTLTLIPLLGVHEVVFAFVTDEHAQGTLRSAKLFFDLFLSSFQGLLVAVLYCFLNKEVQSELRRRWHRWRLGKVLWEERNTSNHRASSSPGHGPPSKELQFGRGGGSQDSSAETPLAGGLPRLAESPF

Row | EC50 (hGLP-1R) [nM] | Compound | solubility (physchem; pH 7) [µg/mL] | solubility at 1 h (physchem; pH 7.4) [µg/mL] | resistance to fibrillation (thioflavin-T fluorescence, FIG. 2) ([1]; 5 mg/mL, 37° C. 48H without agitation, then 40° C. 48H with agitation) | stability / resistance to fibrillation (ThT assay, FIG. 8) ([1]; 45 hours at 37° C., pH 7.0 in phosphate buffer) | reversal of insulin induced hypoglycemia (blood glucose) [2] | in vitro efficacy / potency (in words) (glucagon receptor; luciferase-based glucagon assay) | EC50 (glucagon receptor; read-out: EC50 [nM] (SDV), luciferase-based glucagon assay, SDV in brackets) | % bioactivity of GCG (glucagon receptor; relative to native glucagon) [%]
1 |  | CSCC[C@H](NC(=O)[C@H](CC(C)C)NC(=O)[C@H](Cc1c[nH]c2ccccc12)NC(=O)[C@H](CCC(N)=O)NC(=O)[C@@H](NC(=O)[C@H](Cc1ccccc1)NC(=O)[C@H](CC(=O)O)NC(=O)[C@H](CCC(N)=O)NC(=O)[C@H](C)NC(=O)[C@H](CCCNC(=N)N)NC(=O)[C@H](CCCNC(=N)N)NC(=O)C(C)(C)NC(=O)[C@H](CC(=O)O)NC(=O)[C@H](CC(C)C)NC(=O)[C@H](Cc1cccnc1)NC(=O)[C@H](CCCCN)NC(=O)[C@H](CO)NC(=O)[C@H](Cc1cccnc1)NC(=O)[C@H](CC(=O)O)NC(=O)[C@H](CO)NC(=O)[C@@H](NC(=O)[C@H](Cc1cccnc1)NC(=O)[C@@H](NC(=O)CNC(=O)[C@H](CCC(N)=O)NC(=O)[C@H](CO)NC(=O)[C@@H](N)Cc1cnc[nH]1)[C@@H](C)O)[C@@H](C)O)C(C)C)C(=O)N[C@@H](CC(N)=O)C(=O)N[C@H](C(=O)O)[C@@H](C)O [Compound 9, HSQGTXTSDXSKXLDZRRAQDFVQWLMNT] | > 10000 | > 10000 | resistant to fibrillation | showed stability | reverse insulin induced hypoglycemia | fully potent | 0.0714 | 28
2 | > 10 | CSCC[C@H](NC(=O)[C@H](CC(C)C)NC(=O)[C@H](Cc1c[nH]c2ccccc12)NC(=O)[C@H](CCC(N)=O)NC(=O)[C@@H](NC(=O)[C@H](Cc1ccccc1)NC(=O)[C@H](CC(=O)O)NC(=O)[C@@H](CCC(N)=O)NC(=O)[C@H](C)NC(=O)[C@H](CCCNC(=N)N)NC(=O)[C@H](CCCNC(=N)N)NC(=O)C(C)(C)NC(=O)[C@H](CC(=O)O)NC(=O)[C@H](CC(C)C)NC(=O)[C@H](Cc1ccc(O)cc1)NC(=O)[C@H](CCCCN)NC(=O)[C@H](CO)NC(=O)[C@H](Cc1ccc(O)cc1)NC(=O)[C@H](CC(=O)O)NC(=O)[C@H](CO)NC(=O)[C@@H](NC(=O)[C@H](Cc1ccccc1)NC(=O)[C@@H](NC(=O)CNC(=O)[C@H](CCC(N)=O)NC(=O)[C@H](CO)NC(=O)[C@@H](N)Cc1c[nH]cn1)[C@@H](C)O)[C@@H](C)O)C(C)C)C(=O)N[C@@H](CC(=O)O)C(=O)N[C@@H](CCC(=O)O)C(=O)O [SEQ ID NO: 981, Aib16, q20, D28, E29] (H-HSQGTFTSDYSKYLD[Aib]RRA[dQ]DFVQWLMDE-OH; N-terminus and C-terminus assumed) |  |  |  |  |  |  |  | 
